# In patent US12544413B2, “Composition with antibacterial and re-epithelializing action including probiotics” (EOS2021 S.R.L, priority 2019, dated 2026):
# What was measured:
# [1] = tested on: scratched monolayers of HaCaT cells (human keratinocyte cell line); assay: In vitro wound healing model (scratched HaCaT monolayer); assay type: cell-based; conditions: AG 20 μM, 15 min pre-treatment, no bacterial extract, 20 hours
# Procedure: The inventor has evaluated the ability of extracts obtained from selected bacterial strains to influence wound re-epithelialization using an in vitro artificial wound model. The rate of closure of the scratched monolayer in untreated cells and in cells treated with each bacterial extract at the concentration of 50 μg/ml is shown and evaluated through the observation of the repopulation of the area between the wound edges at different time points after the wound generation. In order to quantitatively analyze the effects of the bacterial extracts on the closure of the wound area, images obtained by using an inverted phase contrast microscope at 0, 20, 28 and 45 hours after the scratch were acquired and expressed as a percentage of closure by using an automatical calculation system to evaluate the percentage of area occupied by said cells with respect to the total surface area analyzed. […] The results expressed as percentages of relative re-epithelialization (mean±SEM from three independent experiments conducted in duplicate) as well as the images representing microscopic observations of scratched monolayers are shown in FIGS. 1A and 1B respectively.
# The HaCaT cell line of spontaneously immortalized human keratinocytes was purchased from Cell Lines Service GmbH (Eppelheim, Germany). […] Untreated cells were also analysed and used as negative controls. […]
# iNOS = assay: Nitrite levels assay (Griess) in culture medium of scratched HaCaT monolayers; assay type: cell-based, human; conditions: AG 20 μM, 15 min pre-treatment, no bacterial extract, 28 hours
# Procedure: The scratched monolayers of HaCaT cells were incubated with or without AG at the concentration of 20 μM for 15 minutes before treatment with the bacterial extracts. Nitrite levels in the culture medium were analyzed by Griess reagent after 28 hours. Data shown are expressed as the mean±SEM of three independent experiments conducted in duplicate. The two-way analysis of variance followed by the Bonferroni's post-hoc test was used to assess the presence of statistically significant differences between the data groups: *P<0.05, **P<0.01, ****P<0.0001 with respect to the control (untreated). #P<0.05, ##P<0.01, ###P<0.001, ####P<0.0001 with respect to each corresponding culture without AG. The ability of bacterial extracts to regulate iNOS was further analyzed by measuring the nitrite levels in supernatants of scratched monolayers of HaCaT cells pre-treated with AG, a selective iNOS inhibitor, or not treated with such inhibitor (known from T. P. Misko et al., Eur. J. Pharmacol, 1993, 233:119-125). NO production was indirectly evaluated with the use of the Griess method by measuring nitrite levels using nitrate reductase and the Griess reaction based on a colorimetric assay. […] Absorbance was measured by spectrophotometric reading at 550 nm using a microplate reader (Bio-Rad Hercules, California, USA). […]
# [2] = Clinical course of diabetes ulcers and toe amputation wound in a patient (Example 1); assay type: in vivo, human; conditions: 500 mg orally every 12 hours, four weeks
# Text: The probiotic formulation was a composition comprising Lactobacillus plantarum NCIMB 43029, Lactobacillus acidophilus NCIMB 43030 and the known Streptococcus thermophilus (SEQ ID NO: 10). 0.5 g of composition was applied once daily.
# The use of the probiotic formulation was discontinued on day 60, 24 days after treatment.
# HaCaT keratinocytes = assay: Trypan blue dye exclusion test of HaCaT viability; assay type: cell-based, human; conditions: 0.1%; positive control; P≤0.01
# Procedure: The HaCaT cell line of spontaneously immortalized human keratinocytes was purchased from Cell Lines Service GmbH (Eppelheim, Germany). HaCaT cells were cultured in DMEM supplemented with 10% (v/v) fetal calf serum (FCS), 2 mM L-glutamine, 100 U/ml penicillin and 100 μg/ml streptomycin (Euro Clone, West York, UK). The culture conditions were kept constantly at 37° C. in a humidified atmosphere with 5% CO2. After reaching 80% confluency, cells were seeded, as specified below, in 6- or 12-well plates for sterile cell cultures (Becton Dickinson, San José, CA) at the concentration of 18,000 cells/cm^2. Non-adherent cells were removed by gentle washing in phosphate buffer (PBS, pH=7.4). Cells grown in a 12-well plate were collected at 20, 28 and 45 hours and live cells were counted with the trypan blue dye exclusion test (Euro Clone, West York, UK). […] Untreated cells were also analysed and used as negative controls. The cells were transferred to a Bürker counting chamber and counted under a microscope Eclipse 50i (Nikon Corporation, Japan). For the selection of suitable concentrations of bacterial extract expressed as μg protein/ml, the viability of the HaCaT keratinocytes was analyzed using the trypan blue exclusion test. […]
molecule,measurement,setting,value
"N=C(N)NN [AG, aminoguanidine]",re-epithelialization (repairing) of the control monolayer,[1],strong effect on the physiological repairing of the control monolayer
same,nitrite production induced by scratching the control monolayer,iNOS,significantly prevented the increase in nitrite production
CC1(C)S[C@@H]2[C@H](NC(=O)[C@H](N)c3ccc(O)cc3)C(=O)N2[C@H]1C(=O)O [amoxicillin],clinical picture of the wounds (wound exudate),[2],worsening clinical picture
Triton X,cell viability,HaCaT keratinocytes,significant reduction
